Measurements from ChEMBL document CHEMBL2203135, “Novel progesterone receptor modulators: 4-aryl-phenylsulfonamides” (Bioorg Med Chem Lett, 2012).
Active and inactive are the calls of the source. The calls are words filed in the database; no cut-off is given here.

Columns and labels:
[1] = Clearance in rat at 2 mg/kg, iv; assay type: ADME, organism-based; parameters: dose 2 mg/kg, route intravenous; details: in vivo
[2] = tested on: Plasma; experiment: Free plasma concentration in ovariectomized rhesus monkey at 5 mg/kg/day, po; assay type: ADME, organism-based, Macaca mulatta; parameters: route oral; details: in vivo
[3] = AUC (0 to infinity) in rat at 2 mg/kg, iv; assay type: ADME, organism-based; parameters: time infinity, dose 2 mg/kg, route intravenous; details: plasma
[4] = tested on: Salmonella typhimurium; experiment: Mutagenicity in Salmonella typhimurium in presence of liver S9 fraction by non-GLP Ames test; assay type: toxicity, organism-based; details: salmonella enterica subsp. enterica serovar typhimurium
[5] = Half life in rat at 2 mg/kg, iv; assay type: ADME, organism-based; parameters: dose 2 mg/kg, route intravenous; details: in vivo
[6] = AUC (0 to infinity) in cynomolgus monkey at 2 mg/kg, po; assay type: ADME, organism-based, Macaca fascicularis; parameters: time infinity, dose 2 mg/kg, route oral; details: plasma
[7] = target: T1, Glucocorticoid receptor (Homo sapiens, UniProt P04150); experiment: Agonist activity at glucocorticoid receptor by cellular reporter gene assay
T1 sequence (P04150 whole entry): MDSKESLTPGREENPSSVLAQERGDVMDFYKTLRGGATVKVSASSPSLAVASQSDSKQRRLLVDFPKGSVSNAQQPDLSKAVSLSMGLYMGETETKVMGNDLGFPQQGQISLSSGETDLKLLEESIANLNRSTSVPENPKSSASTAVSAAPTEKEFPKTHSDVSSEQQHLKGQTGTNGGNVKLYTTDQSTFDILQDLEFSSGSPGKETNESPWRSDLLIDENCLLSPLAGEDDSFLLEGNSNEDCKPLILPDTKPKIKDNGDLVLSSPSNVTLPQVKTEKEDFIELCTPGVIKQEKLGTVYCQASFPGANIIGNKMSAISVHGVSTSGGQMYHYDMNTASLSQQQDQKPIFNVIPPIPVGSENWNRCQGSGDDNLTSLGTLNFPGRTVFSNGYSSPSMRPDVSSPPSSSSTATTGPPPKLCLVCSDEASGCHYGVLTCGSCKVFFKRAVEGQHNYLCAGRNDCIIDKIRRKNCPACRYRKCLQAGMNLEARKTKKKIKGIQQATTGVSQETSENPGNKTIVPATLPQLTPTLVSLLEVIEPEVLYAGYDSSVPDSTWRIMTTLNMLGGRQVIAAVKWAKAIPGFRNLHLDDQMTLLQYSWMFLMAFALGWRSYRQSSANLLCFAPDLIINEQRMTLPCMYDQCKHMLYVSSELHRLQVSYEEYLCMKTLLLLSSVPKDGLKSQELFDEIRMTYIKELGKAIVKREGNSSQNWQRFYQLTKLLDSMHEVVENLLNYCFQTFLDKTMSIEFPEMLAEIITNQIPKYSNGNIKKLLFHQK

[8] = AUC (0 to last) in in ovariectomized rhesus monkey at 5 mg/kg/day, po; assay type: ADME, organism-based, Macaca mulatta; parameters: dose 5 mg/kg/day, time 0 - last, route oral; details: female, plasma
[9] = target: T2, Mineralocorticoid receptor (Homo sapiens) (UniProt P08235); experiment: Antagonist activity at mineralocorticoid receptor at 1 uM by cellular reporter gene assay; assay type: functional; parameters: scale not given: the % may be the effect or the level left
T2 sequence (whole entry): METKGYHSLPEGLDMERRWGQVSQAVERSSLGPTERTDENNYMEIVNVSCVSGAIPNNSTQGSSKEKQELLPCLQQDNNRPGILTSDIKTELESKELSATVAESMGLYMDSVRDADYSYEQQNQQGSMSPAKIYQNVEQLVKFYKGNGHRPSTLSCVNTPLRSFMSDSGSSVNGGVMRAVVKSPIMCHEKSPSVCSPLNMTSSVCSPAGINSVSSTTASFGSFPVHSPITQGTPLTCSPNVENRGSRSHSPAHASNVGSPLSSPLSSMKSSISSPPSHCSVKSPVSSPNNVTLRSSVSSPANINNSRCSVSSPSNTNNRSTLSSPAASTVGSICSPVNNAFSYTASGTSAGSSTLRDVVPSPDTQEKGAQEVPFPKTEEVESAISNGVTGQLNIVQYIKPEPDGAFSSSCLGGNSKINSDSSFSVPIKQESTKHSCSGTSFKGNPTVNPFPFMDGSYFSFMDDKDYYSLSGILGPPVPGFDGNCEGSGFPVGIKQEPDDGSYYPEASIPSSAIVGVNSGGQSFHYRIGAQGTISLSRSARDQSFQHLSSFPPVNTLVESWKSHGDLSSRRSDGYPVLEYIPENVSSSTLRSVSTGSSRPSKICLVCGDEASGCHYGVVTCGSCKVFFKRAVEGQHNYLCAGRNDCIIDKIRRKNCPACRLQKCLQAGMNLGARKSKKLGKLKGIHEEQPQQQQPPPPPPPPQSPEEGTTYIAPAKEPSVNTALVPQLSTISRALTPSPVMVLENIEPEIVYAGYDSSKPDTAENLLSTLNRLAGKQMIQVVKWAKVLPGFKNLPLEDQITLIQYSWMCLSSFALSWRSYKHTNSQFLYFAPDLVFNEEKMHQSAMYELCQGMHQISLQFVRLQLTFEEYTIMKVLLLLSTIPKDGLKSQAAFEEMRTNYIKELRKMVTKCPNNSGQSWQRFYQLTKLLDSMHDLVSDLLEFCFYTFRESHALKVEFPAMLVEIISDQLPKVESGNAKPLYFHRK

[10] = Cmax in cynomolgus monkey at 2 mg/kg, po; assay type: ADME, organism-based, Macaca fascicularis; parameters: dose 2 mg/kg, route oral; details: in vivo
[11] = Volume of distribution at steady state in cynomolgus monkey at 2 mg/kg, iv; assay type: ADME, organism-based, Macaca fascicularis; parameters: dose 2 mg/kg, route intravenous; details: in vivo, read-out: Vdss
[12] = Oral bioavailability in cynomolgus monkey at 2 mg/kg; assay type: ADME, organism-based, Macaca fascicularis; details: in vivo
[13] = Oral bioavailability in rat at 2 mg/kg; assay type: ADME, organism-based; details: in vivo
[14] = target: T3, Estrogen receptor (Homo sapiens) (UniProt P03372); experiment: (§1) Antagonist activity at estrogen receptor by cellular reporter gene assay; assay type: functional
T3 sequence (whole entry): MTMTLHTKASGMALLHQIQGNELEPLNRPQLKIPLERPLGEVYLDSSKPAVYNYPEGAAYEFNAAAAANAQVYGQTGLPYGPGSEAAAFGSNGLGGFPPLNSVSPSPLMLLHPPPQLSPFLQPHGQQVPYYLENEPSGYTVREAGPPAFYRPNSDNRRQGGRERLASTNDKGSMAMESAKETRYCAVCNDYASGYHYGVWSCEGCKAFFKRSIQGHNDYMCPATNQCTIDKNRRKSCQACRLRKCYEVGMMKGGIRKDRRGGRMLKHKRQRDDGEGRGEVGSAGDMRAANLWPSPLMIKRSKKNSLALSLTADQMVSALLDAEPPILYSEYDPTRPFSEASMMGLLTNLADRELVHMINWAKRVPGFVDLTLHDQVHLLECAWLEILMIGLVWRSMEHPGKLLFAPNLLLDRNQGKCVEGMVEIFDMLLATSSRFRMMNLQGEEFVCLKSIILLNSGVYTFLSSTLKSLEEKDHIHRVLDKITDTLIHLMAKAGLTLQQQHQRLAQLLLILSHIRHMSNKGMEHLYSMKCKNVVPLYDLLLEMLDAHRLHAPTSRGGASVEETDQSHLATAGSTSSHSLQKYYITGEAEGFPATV

[15] = Fraction unbound in rat plasma; assay type: ADME, cell-free
[16] = Cmax in in ovariectomized rhesus monkey at 5 mg/kg/day, po; assay type: ADME, organism-based, Macaca mulatta; parameters: dose 5 mg/kg/day, route oral; details: female, in vivo
[17] = AUC (0 to infinity) in cynomolgus monkey at 2 mg/kg, iv; assay type: ADME, organism-based, Macaca fascicularis; parameters: time infinity, dose 2 mg/kg, route intravenous; details: plasma
[18] = Fraction unbound in human plasma; assay type: ADME, cell-free
[19] = Half life in cynomolgus monkey at 2 mg/kg, iv; assay type: ADME, organism-based, Macaca fascicularis; parameters: dose 2 mg/kg, route intravenous; details: in vivo
[20] = target: T4, Estrogen receptor (Homo sapiens, UniProt P03372); experiment: as §1; assay type: functional
T4 sequence (P03372 whole entry): T3 sequence (whole entry)

clearance [1] [mL/min/kg] | Cp(f) [2] [µM] | AUC(0-inf) [3] [ng·h/mL] | half-life [5] [h] | AUC(0-inf) [6] [ng·h/mL] | IC50 [7] [nM] | AUC(0-t) [8] [ng·h/mL] | Activity [9] [%] | Cmax [10] [ng/mL] | Vd [11] [L/kg] | bioavailability [12] [%] | bioavailability [13] [%] | Activity [14] | fraction unbound [15] | Cmax [16] [µM] | AUC(0-inf) [17] [ng·h/mL] | fraction unbound [18] | half-life [19] [h] | IC50 [20] [nM] | Structure (SMILES) | Activity [4]
2.6 | 0.011 | 13000 | 2 | 13700 | > 10000 | 28500 | 60 | 5100 | 0.3 | 69 | 98.5 | inactive | 0.019 | 8.8 | 18000 | 0.003 | 2.8 |  | CCS(=O)(=O)Nc1cc(F)c(-c2ccc(C#N)n2C)c(F)c1 | Non-toxic
 |  |  |  |  |  |  |  |  |  |  |  |  |  |  |  |  |  | 2000 | COC[C@]1(OC)CC[C@H]2[C@@H]3CCC4=CC(=O)CCC4=C3[C@@H](c3ccc(/C=N/O)cc3)C[C@@]21C [ASOPRISNIL] | 
